Source: publication PMC9652372, “Glycolytic flux control by drugging phosphoglycolate phosphatase” (Nature Communications, 2022)
Changes are numbered by the printed parent chain. Values joined by “and” are separate entries in the source; they are usually repeats but may differ in a detail not shown here. Equal entries are not always repeated.

Experiments:
PGP^P127E = target: T1, PGP^P127E (Mus musculus, UniProt Q8CHP8, P127E); conditions: read-out: enzyme activity in presence of CP1 relative to DMSO control (1), mPGP-P127E
T1 sequence (Q8CHP8 1-321 P127E): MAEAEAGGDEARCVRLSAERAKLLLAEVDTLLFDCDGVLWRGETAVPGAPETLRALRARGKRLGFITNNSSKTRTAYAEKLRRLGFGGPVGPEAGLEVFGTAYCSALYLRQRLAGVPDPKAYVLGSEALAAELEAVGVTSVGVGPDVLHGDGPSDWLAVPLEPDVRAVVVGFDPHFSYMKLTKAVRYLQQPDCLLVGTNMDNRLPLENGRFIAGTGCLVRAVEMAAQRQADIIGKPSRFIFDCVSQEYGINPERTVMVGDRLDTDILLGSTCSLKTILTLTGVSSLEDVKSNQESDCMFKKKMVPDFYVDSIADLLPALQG

murine PGP = target: T2, murine PGP (Mus musculus, UniProt Q8CHP8); test: IC50 determination, murine PGP, 4-phosphoerythronate (4PE) dephosphorylation; conditions: for M.m PGP on 4-Phosphoerythronate: activity, control = 100
T2 sequence (Q8CHP8 1-321): T1 sequence (Q8CHP8 1-321 P127E) with E127P

HT1080 cells = test: NMR quantification of cellular metabolites; type: cell-based, human
Protocol: For NMR experiments, 2.7 million cells were seeded in 10 cm dishes for all samples. […] For each condition, six samples were prepared; one of which was used to count the number of cells at the end of the sample preparation. Free metabolites were obtained by methanol extraction: After washing the samples with ice-cold PBS, they were placed in liquid nitrogen for 2 min, followed by mixing the samples cooled on ice with 5 mL methanol. The samples were mixed for 15 min at 4 °C, and centrifuged at 2.5 × g for 30 min at 4 °C. The solvent was removed by evaporation with a N2 gas flow over 5 h on ice, followed by freeze-drying under vacuum. The remaining pellet was dissolved in 700 µL D2O, and transferred to a 5 mm borosilicate NMR tube. NMR experiments were performed with a BRUKER AVANCE NEO 600 spectrometer operating at 600.13 MHz for ^1H detection equipped with a cryogenic NMR probe offering enhanced sensitivity. The ^1H NMR spectra were acquired using a double watergate pulse sequence with excitation sculpting for water suppression. A relaxation delay of 4 s was sufficient. The π and π/2 pulses performed with a radio frequency power of 62.5 kHz were combined with 2 ms selective rectangular shape pulses optimized for efficient suppression of the H2O ^1H resonance, which was chosen as the transmitter frequency. The two blocks of gradient pulses were conducted over 1 ms per pulse using gradients of 0.155 T/m and 0.055 T/m with a smoothed rectangular shape profile (SMSQ10.100). Signal averaging was achieved over 512 scans using an acquisition time of 1.38 s. Acquisition and pre-processing of NMR spectra was performed under the control of a workstation with TopSpin 4.0.7. Data processing included Fourier transformation, zero order phase correction, 1 Hz line broadening using a Lorentzian window function and automatic baseline correction with a polynomial of fifth degree. A 9 mmol/L aqueous sucrose solution was used as a calibration compound to calibrate an ERETIC2 reference for absolute concentration determination[66],[67]. Based on the sucrose reference, an electronic signal was placed in each ^1H spectrum to calibrate the deconvolution software Chenomx NMR suite. A standard protocol for quantitative NMR was applied: The signal corresponding to the calibration compound was integrated and normalized according to the number of protons of this compound. The unknown concentration of compound x in the presence of the calibration compound was calculated according to: Cx=Ix/IcalNcal/NxCcal
With I, N, and C being the integral area, number of nuclei, or concentration of the calibration (cal) or the targeted compound (x), respectively. Due to spectral superposition, glycerol-3-phosphate could not be quantified in ^1H NMR spectra. Therefore, we conducted ^31P - ^1H HMBC 2D experiments and quantified glycerol-3-phosphate using the phosphorylcholine peak and the respective concentration known from ^1H NMR spectra. […] Three gradient pulses were used (sequence hmbcgpndqf) over 1 ms each with gradient strengths of 0.06 T/m, 0.06 T/m and 0.05 T/m. The relaxation delay was set to 2 s, the acquisition time to 0.328 s. […] Data processing was achieved as described above except for the Qsine window function in both dimensions. All measurements were performed at 7 °C.

Q: For `O=C(Nc1ccccc1C(=O)O)c1ccc(Oc2ccc(C(=O)Nc3ccccc3C(=O)O)cc2)cc1` [CP1], which remaining activity at 32.36 µM (PGP^P127E; CP1 log[M] -4.49, Exp #1-#3) is on record?
A: 15%

Q: And the remaining activity at 15.85 µM (PGP^P127E; CP1 log[M] -4.80, Exp #1-#3)?
A: 27%

Q: And the remaining activity at 7.943 µM (PGP^P127E; CP1 log[M] -5.10, Exp #1-#3)?
A: 45%

Q: What about the remaining activity at 3.981 µM (PGP^P127E; CP1 log[M] -5.40, Exp #1-#3) of the same compound?
A: 64%

Q: What about the remaining activity at 1.995 µM (PGP^P127E; CP1 log[M] -5.70, Exp #1-#3) of the same compound?
A: 80%

Q: And the remaining activity at 1 µM (PGP^P127E; CP1 log[M] -6.00, Exp #2-#3)?
A: 85%

Q: What about the remaining activity at 0.5012 µM (PGP^P127E; CP1 log[M] -6.30, Exp #1-#3) of the same compound?
A: 81%

Q: And the remaining activity at 0.2512 µM (PGP^P127E; CP1 log[M] -6.60, Exp #1-#3)?
A: 94%

Q: And the remaining activity at 0.1259 µM (PGP^P127E; CP1 log[M] -6.90, Exp #1-#3)?
A: 92%

Q: What about the IC50 (murine PGP) of the same compound?
A: 440 ± 60 nM

Q: What about the “M.m PGP on 4-Phosphoerythronate” value (murine PGP; CP1 log[M] -5.34679) of the same compound?
A: 4.5082 and 7.8838 and 6.1475

Q: And the “M.m PGP on 4-Phosphoerythronate” value (murine PGP; CP1 log[M] -5.94885)?
A: 24.5902 and 29.0456 and 23.7705

Q: And the “M.m PGP on 4-Phosphoerythronate” value (murine PGP; CP1 log[M] -6.24988)?
A: 43.8525 and 48.1328 and 39.3443

Q: And the “M.m PGP on 4-Phosphoerythronate” value (murine PGP; CP1 log[M] -6.55091)?
A: 54.0984 and 64.3154 and 65.9836

Q: What about the “M.m PGP on 4-Phosphoerythronate” value (murine PGP; CP1 log[M] -6.85194) of the same compound?
A: 70.4918 and 82.5726 and 78.6885

Q: And the “change of acetate levels” value (HT1080 cells; HT1080 cells, 3 h, 33 µM CP1)?
A: −42%

Q: What about the “change of alanine levels” value (HT1080 cells; HT1080 cells, 3 h, 33 µM CP1) of the same compound?
A: −52%

Q: And the “change of lactate levels” value (HT1080 cells; HT1080 cells, 3 h, 33 µM CP1)?
A: −45%

Q: And the “change of pyruvate levels” value (HT1080 cells; HT1080 cells, 3 h, 33 µM CP1)?
A: −10%

Q: And the “1-Methylnicotinamide (NMR metabolite level)” value (HT1080 cells; T3: 3h CP1-treated, Exp #1-5)?
A: 0.0004582 and 0.0004235 and 0.0007003 and 0.0006519 and 0.0004828

Q: And the “2-Hydroxyglutarate (NMR metabolite level)” value (HT1080 cells; T3: 3h CP1-treated, Exp #1-5)?
A: 0.01261 and 0.01491 and 0.01314 and 0.01427 and 0.01273

Q: What about the “ATP (NMR metabolite level)” value (HT1080 cells; T3: 3h CP1-treated, Exp #1-5) of the same compound?
A: 0.001497 and 0.001391 and 0.001868 and 0.001572 and 0.001599

Q: What about the “Acetic acid (NMR metabolite level)” value (HT1080 cells; T3: 3h CP1-treated, Exp #1-5) of the same compound?
A: 0.004551 and 0.004658 and 0.004836 and 0.004678 and 0.004285

Q: And the “Choline (NMR metabolite level)” value (HT1080 cells; T3: 3h CP1-treated, Exp #1-5)?
A: 0.0005498 and 0.0005142 and 0.0005336 and 0.0006902 and 0.0006337

Q: And the “Creatine (NMR metabolite level)” value (HT1080 cells; T3: 3h CP1-treated, Exp #1-5)?
A: 0.00675 and 0.006504 and 0.00667 and 0.008321 and 0.006277

Q: What about the “D-Glucose (NMR metabolite level)” value (HT1080 cells; T3: 3h CP1-treated, Exp #1-5) of the same compound?
A: 0.1212 and 0.1286 and 0.1124 and 0.1017 and 0.1229

Q: And the “Dimethylamine (NMR metabolite level)” value (HT1080 cells; T3: 3h CP1-treated, Exp #1-5)?
A: 0.03604 and 0.03364 and 0.02538 and 0.0283 and 0.03615

Q: And the “Formic acid (NMR metabolite level)” value (HT1080 cells; T3: 3h CP1-treated, Exp #1-5)?
A: 0.001497 and 0.001482 and 0.001868 and 0.001994 and 0.001569

Q: What about the “Fumaric acid (NMR metabolite level)” value (HT1080 cells; T3: 3h CP1-treated, Exp #1-5) of the same compound?
A: 0.0003054 and 0.0002722 and 0.0003001 and 0.0003451 and 0.0003319

Q: And the “Glutathione (NMR metabolite level)” value (HT1080 cells; T3: 3h CP1-treated, Exp #1-5)?
A: 0.01109 and 0.01041 and 0.01101 and 0.01265 and 0.01144

Q: And the “Glycerol 3-phosphate (NMR metabolite level)” value (HT1080 cells; T3: 3h CP1-treated, Exp #1-5)?
A: 0.005205 and 0.004086 and 0.005958 and 0.005982 and 0.004016

Q: What about the “Glycine (NMR metabolite level)” value (HT1080 cells; T3: 3h CP1-treated, Exp #1-5) of the same compound?
A: 0.01387 and 0.01388 and 0.01587 and 0.01515 and 0.01301

Q: And the “Histidine (NMR metabolite level)” value (HT1080 cells; T3: 3h CP1-treated, Exp #1-5)?
A: 0.001863 and 0.001573 and 0.001667 and 0.001611 and 0.00166

Q: What about the “L-Alanine (NMR metabolite level)” value (HT1080 cells; T3: 3h CP1-treated, Exp #1-5) of the same compound?
A: 0.003726 and 0.003932 and 0.003735 and 0.003681 and 0.003651

Q: What about the “L-Arginine (NMR metabolite level)” value (HT1080 cells; T3: 3h CP1-treated, Exp #1-5) of the same compound?
A: 0.003085 and 0.0036 and 0.003035 and 0.003183 and 0.004798

Q: And the “L-Aspartic acid (NMR metabolite level)” value (HT1080 cells; T3: 3h CP1-treated, Exp #1-5)?
A: 0.006078 and 0.006201 and 0.007304 and 0.006941 and 0.006337

Q: And the “L-Glutamic acid (NMR metabolite level)” value (HT1080 cells; T3: 3h CP1-treated, Exp #1-5)?
A: 0.03955 and 0.04114 and 0.04112 and 0.04632 and 0.04125

Q: What about the “L-Glutamine (NMR metabolite level)” value (HT1080 cells; T3: 3h CP1-treated, Exp #1-5) of the same compound?
A: 0.1032 and 0.09634 and 0.112 and 0.1011 and 0.1019

Q: What about the “L-Isoleucine (NMR metabolite level)” value (HT1080 cells; T3: 3h CP1-treated, Exp #1-5) of the same compound?
A: 0.008064 and 0.008046 and 0.007837 and 0.007708 and 0.008178

Q: What about the “L-Lactic acid (NMR metabolite level)” value (HT1080 cells; T3: 3h CP1-treated, Exp #1-5) of the same compound?
A: 0.03287 and 0.03079 and 0.03432 and 0.03474 and 0.0328

Q: And the “L-Leucine (NMR metabolite level)” value (HT1080 cells; T3: 3h CP1-treated, Exp #1-5)?
A: 0.008094 and 0.008077 and 0.008637 and 0.008321 and 0.007846

Q: What about the “L-Lysine (NMR metabolite level)” value (HT1080 cells; T3: 3h CP1-treated, Exp #1-5) of the same compound?
A: 0.005651 and 0.005687 and 0.005569 and 0.005062 and 0.005432

Q: What about the “L-Methionine (NMR metabolite level)” value (HT1080 cells; T3: 3h CP1-treated, Exp #1-5) of the same compound?
A: 0.002474 and 0.002571 and 0.002635 and 0.002454 and 0.002656

Q: And the “L-Phenylalanine (NMR metabolite level)” value (HT1080 cells; T3: 3h CP1-treated, Exp #1-5)?
A: 0.004704 and 0.004749 and 0.004702 and 0.00464 and 0.004708

Q: What about the “L-Threonine (NMR metabolite level)” value (HT1080 cells; T3: 3h CP1-treated, Exp #1-5) of the same compound?
A: 0.0135 and 0.01422 and 0.01357 and 0.01411 and 0.01304

Q: What about the “L-Tyrosine (NMR metabolite level)” value (HT1080 cells; T3: 3h CP1-treated, Exp #1-5) of the same compound?
A: 0.004795 and 0.004537 and 0.004569 and 0.004755 and 0.004798

Q: What about the “L-Valine (NMR metabolite level)” value (HT1080 cells; T3: 3h CP1-treated, Exp #1-5) of the same compound?
A: 0.007911 and 0.008379 and 0.00757 and 0.007631 and 0.008117

Q: And the “NAD+ (NMR metabolite level)” value (HT1080 cells; T3: 3h CP1-treated, Exp #1-5)?
A: 0.001405 and 0.001331 and 0.001634 and 0.001764 and 0.001509

Q: And the “Phosphocreatine (NMR metabolite level)” value (HT1080 cells; T3: 3h CP1-treated, Exp #1-5)?
A: 0.002352 and 0.00245 and 0.002668 and 0.002838 and 0.002474

Q: What about the “Phosphorylcholine (NMR metabolite level)” value (HT1080 cells; T3: 3h CP1-treated, Exp #1-5) of the same compound?
A: 0.007361 and 0.007078 and 0.008004 and 0.008743 and 0.00688
